Reference: US5234907A, “Synthetic vasoactive intestinal peptide analogs” (Hoffmann-La Roche Inc., priority 1991, dated 1993)
*1 amine or outer side, *2 acyl side, *3 side chain or, on linkers, in order; H or OH if unused. [ ]: non-standard residue; d: D form. Cys(Acm) = CC(=O)NCSC[C@H](N[*:1])C(=O)[*:2]; Phe(4-F) = N[C@@H](Cc1ccc(F)cc1)C(=O)O; Nle = CCCC[C@H](N)C(=O)O; Orn = NCCC[C@H](N)C(=O)O

Tests used:
[1] = tested on: guinea pigs; assay: In vivo bronchodilator activity by tracheal instillation against histamine-induced bronchoconstriction; design: species or system guinea pig; conditions: 100 μl, anesthetized male Hartley guinea pigs, histamine challenge 50 μg/kg i.v., inhibition of tracheal pressure increase
Protocol: The in vivo bronchodilator activity of VIP analogs in guinea pigs was assessed by the tracheal instillation route of administration. This technique utilized male guinea pigs (Hartley strain, Charles River) weighing 400-600 g. Animals were anesthetized with urethane (2 g/kg) intraperitoneally and a polyethylene cannula was inserted into the jugular vein for intravenous drug administration.
The animals were tracheotomized and dosing solutions of distilled water or test compound dissolved in distilled water were administered into the trachea, approximately three-quarter the distance to the carina with a pipette. The concentration of the dosing solution was adjusted to deliver a constant volume of 100 μl. The animals were placed supine for one minute to aid drug delivery to the lung. One minute later, spontaneous breathing was arrested with succinylcholine chloride (1.2 mg/kg) administered intravenously, and the animals were ventilized with a Harvard Model 680 small animal respirator set at 40 breaths/min and 4.0 cm^3 stoke volume. The animals were challenged with a maximal constrictory dose of histamine (50 μg/kg, i.v.) and tracheal pressure (cm of water) was recorded from a Statham pressure transducer (P 32 AA).
The change in tracheal pressure was averaged for at least 3 control and 3 drug-treated animals and percent inhibition was calculated. The relative potency of compounds administered by the instillation route was determined by administering various doses of test compound and calculating the median inhibitory dose (ID50 value). The ID50 was determined from log dose-reasons curves generated by at least 3 doses that caused inhibitory effects between 10% and 90%. The correlation coefficient for the regression line of each antagonist was always greater than 0.95.
For determination of the time course of inhibition for various compounds, the time between administration of compound and challenge with histamine was varied. The time course of activity was calculated as the time when inhibition decreased to 40%.

[2] = tested on: guinea pig tracheal smooth muscle; assay: Tracheal relaxant activity of VIP analogs on isolated guinea pig tracheal rings; assay type: cell-based; conditions: cumulative concentration response; responses as % of maximum response to VIP (10^-6 M=100%); at least three tissues pooled; linear regression
Protocol: The relaxant activity of the VIP analogs was studied in a model utilizing guinea pig trachea. [Wasserman, M. A. et al., in Vasoactive Intestinal Peptide, S. I. Said, ed., Raven Press, N.Y. 1982, pp 177-184]; All tissues were taken from male albino guinea pig weighing 400-600 g, anesthesized with urethane (2 g/kg, i.p.). After exanguination, the trachea were removed and divided into four ring segments (3 mm length). Each ring was suspended by 30 gauge stainless steel wires in a 10 mL jacketed tissue bath and attached via 4-0 silk thread to a Grass force displacement transducer (model FT03C, Grass Instruments Co., Quincy, Ma), for isometric recording of tension. The smooth muscle was bathed in modified Krebs solution of the following composition: NaCl, 120 mM; KCl, 4.7 mM; CaCl2, 2.5 mM; MgSO.4 7H2 O, 1.2 mM; NaHCO3, 25 mM; K2 HPO4 monobasic, 1.2 mM; and dextrose, 10 mM. Tissue baths were maintained at 37° C. and constantly bubbled with 95% O2 and 5% CO2. Responses were recorded on an 8 channel and a 4 channel Hewlett-Packard (model 7702B and 7754A, respectively) recorder (Hewlett-Packard, Paramus, N.J.). […] Frequent readjustments of tension were required during the 60 minute stabilization period which followed. Tissues were rinsed at 15 minute intervals.
Cumulative concentration response curves were obtained for each tissue by successive […] increases in the bath concentration of VIP or VIP analogs according to the method of VanRossum [Arch. Int. Pharmacodyn., 143, 299-330 (1963)]. Only one cumulative dose response curve was obtained on a single tissue. To minimize variability between tissues, relaxant responses were expressed as a percentage of the maximum response obtained to VIP (10^-6 M=100%) added at the end of each concentration response experiment. Responses obtained from at least three tissues were pooled and EC50 values were determined by linear regression.

Substance	Bronchodilator activity in guinea pigs, ED50 [1] [µg]	EC50 [2] [nM]
Ac--[Glu^8, Lys^12, Nle^17, Ala^19, Ala^25, Leu^26, Lys^27,28, Ala^29-31 ]--VIP (Ac-HSDAVFTENYTKLRKQ[Nle]AAKKYLNALKKAAA-NH2; SMILES CCCC[C@H](NC(=O)[C@H](CCC(N)=O)NC(=O)[C@H](CCCCN)NC(=O)[C@H](CCCNC(=N)N)NC(=O)[C@H](CC(C)C)NC(=O)[C@H](CCCCN)NC(=O)[C@@H](NC(=O)[C@H](Cc1ccc(O)cc1)NC(=O)[C@H](CC(N)=O)NC(=O)[C@H](CCC(=O)O)NC(=O)[C@@H](NC(=O)[C@H](Cc1ccccc1)NC(=O)[C@@H](NC(=O)[C@H](C)NC(=O)[C@H](CC(=O)O)NC(=O)[C@H](CO)NC(=O)[C@H](Cc1c[nH]cn1)NC(C)=O)C(C)C)[C@@H](C)O)[C@@H](C)O)C(=O)N[C@@H](C)C(=O)N[C@@H](C)C(=O)N[C@@H](CCCCN)C(=O)N[C@@H](CCCCN)C(=O)N[C@@H](Cc1ccc(O)cc1)C(=O)N[C@@H](CC(C)C)C(=O)N[C@@H](CC(N)=O)C(=O)N[C@@H](C)C(=O)N[C@@H](CC(C)C)C(=O)N[C@@H](CCCCN)C(=O)N[C@@H](CCCCN)C(=O)N[C@@H](C)C(=O)N[C@@H](C)C(=O)N[C@@H](C)C(N)=O) [Ac--(SEQ ID NO: 21)--NH2]	0.03	0.1
Ac--[Glu^8, Lys^12, Nle^17, Ala^19, Val^26, Thr^28, Gly^29,30, Thr^31 ]--VIP (Ac-HSDAVFTENYTKLRKQ[Nle]AAKKYLNSVLTGGT-NH2; SMILES CCCC[C@H](NC(=O)[C@H](CCC(N)=O)NC(=O)[C@H](CCCCN)NC(=O)[C@H](CCCNC(=N)N)NC(=O)[C@H](CC(C)C)NC(=O)[C@H](CCCCN)NC(=O)[C@@H](NC(=O)[C@H](Cc1ccc(O)cc1)NC(=O)[C@H](CC(N)=O)NC(=O)[C@H](CCC(=O)O)NC(=O)[C@@H](NC(=O)[C@H](Cc1ccccc1)NC(=O)[C@@H](NC(=O)[C@H](C)NC(=O)[C@H](CC(=O)O)NC(=O)[C@H](CO)NC(=O)[C@H](Cc1c[nH]cn1)NC(C)=O)C(C)C)[C@@H](C)O)[C@@H](C)O)C(=O)N[C@@H](C)C(=O)N[C@@H](C)C(=O)N[C@@H](CCCCN)C(=O)N[C@@H](CCCCN)C(=O)N[C@@H](Cc1ccc(O)cc1)C(=O)N[C@@H](CC(C)C)C(=O)N[C@@H](CC(N)=O)C(=O)N[C@@H](CO)C(=O)N[C@H](C(=O)N[C@@H](CC(C)C)C(=O)N[C@H](C(=O)NCC(=O)NCC(=O)N[C@H](C(N)=O)[C@@H](C)O)[C@@H](C)O)C(C)C) [Ac--(SEQ ID NO: 15)--NH2]	0.064	0.55
Ac--[Glu^8, Lys^12, Nle^17, Ala^25, Leu^26, Lys^27,28, Gly^29,30, Thr^31 ]--VIP (Ac-HSDAVFTENYTKLRKQ[Nle]AVKKYLNALKKGGT-NH2; SMILES CCCC[C@H](NC(=O)[C@H](CCC(N)=O)NC(=O)[C@H](CCCCN)NC(=O)[C@H](CCCNC(=N)N)NC(=O)[C@H](CC(C)C)NC(=O)[C@H](CCCCN)NC(=O)[C@@H](NC(=O)[C@H](Cc1ccc(O)cc1)NC(=O)[C@H](CC(N)=O)NC(=O)[C@H](CCC(=O)O)NC(=O)[C@@H](NC(=O)[C@H](Cc1ccccc1)NC(=O)[C@@H](NC(=O)[C@H](C)NC(=O)[C@H](CC(=O)O)NC(=O)[C@H](CO)NC(=O)[C@H](Cc1c[nH]cn1)NC(C)=O)C(C)C)[C@@H](C)O)[C@@H](C)O)C(=O)N[C@@H](C)C(=O)N[C@H](C(=O)N[C@@H](CCCCN)C(=O)N[C@@H](CCCCN)C(=O)N[C@@H](Cc1ccc(O)cc1)C(=O)N[C@@H](CC(C)C)C(=O)N[C@@H](CC(N)=O)C(=O)N[C@@H](C)C(=O)N[C@@H](CC(C)C)C(=O)N[C@@H](CCCCN)C(=O)N[C@@H](CCCCN)C(=O)NCC(=O)NCC(=O)N[C@H](C(N)=O)[C@@H](C)O)C(C)C) [Ac--(SEQ ID NO: 16)--NH2]	0.043	0.27
Ac--[Glu^8, Lys^12, Nle^17, Val^26, Thr^28, Gly^29,30, Cys(Acm)^31 ]--VIP (Ac-HSDAVFTENYTKLRKQ[Nle]AVKKYLNSVLTGG[Cys(Acm)]-NH2; SMILES CCCC[C@H](NC(=O)[C@H](CCC(N)=O)NC(=O)[C@H](CCCCN)NC(=O)[C@H](CCCNC(=N)N)NC(=O)[C@H](CC(C)C)NC(=O)[C@H](CCCCN)NC(=O)[C@@H](NC(=O)[C@H](Cc1ccc(O)cc1)NC(=O)[C@H](CC(N)=O)NC(=O)[C@H](CCC(=O)O)NC(=O)[C@@H](NC(=O)[C@H](Cc1ccccc1)NC(=O)[C@@H](NC(=O)[C@H](C)NC(=O)[C@H](CC(=O)O)NC(=O)[C@H](CO)NC(=O)[C@H](Cc1c[nH]cn1)NC(C)=O)C(C)C)[C@@H](C)O)[C@@H](C)O)C(=O)N[C@@H](C)C(=O)N[C@H](C(=O)N[C@@H](CCCCN)C(=O)N[C@@H](CCCCN)C(=O)N[C@@H](Cc1ccc(O)cc1)C(=O)N[C@@H](CC(C)C)C(=O)N[C@@H](CC(N)=O)C(=O)N[C@@H](CO)C(=O)N[C@H](C(=O)N[C@@H](CC(C)C)C(=O)N[C@H](C(=O)NCC(=O)NCC(=O)N[C@@H](CSCNC(C)=O)C(N)=O)[C@@H](C)O)C(C)C)C(C)C) [Ac--(SEQ ID NO: 85)--NH2]	2.0	0.45
Ac--[Leu^5, p-F--Phe^6, Glu^8, Orn^12, Ala^17,19, Thr^25, Val^26, Thr^28, Gly^29,30, Cys(Acm)^31 ]--VIP (Ac-HSDAL[Phe(4-F)]TENYT[Orn]LRKQAAAKKYLNTVLTGG[Cys(Acm)]-NH2; SMILES CC(=O)NCSC[C@H](NC(=O)CNC(=O)CNC(=O)[C@@H](NC(=O)[C@H](CC(C)C)NC(=O)[C@@H](NC(=O)[C@@H](NC(=O)[C@H](CC(N)=O)NC(=O)[C@H](CC(C)C)NC(=O)[C@H](Cc1ccc(O)cc1)NC(=O)[C@H](CCCCN)NC(=O)[C@H](CCCCN)NC(=O)[C@H](C)NC(=O)[C@H](C)NC(=O)[C@H](C)NC(=O)[C@H](CCC(N)=O)NC(=O)[C@H](CCCCN)NC(=O)[C@H](CCCNC(=N)N)NC(=O)[C@H](CC(C)C)NC(=O)[C@H](CCCN)NC(=O)[C@@H](NC(=O)[C@H](Cc1ccc(O)cc1)NC(=O)[C@H](CC(N)=O)NC(=O)[C@H](CCC(=O)O)NC(=O)[C@@H](NC(=O)[C@H](Cc1ccc(F)cc1)NC(=O)[C@H](CC(C)C)NC(=O)[C@H](C)NC(=O)[C@H](CC(=O)O)NC(=O)[C@H](CO)NC(=O)[C@H](Cc1c[nH]cn1)NC(C)=O)[C@@H](C)O)[C@@H](C)O)[C@@H](C)O)C(C)C)[C@@H](C)O)C(N)=O) [Ac--(SEQ ID NO: 13)--NH2]	0.09	0.68
Ac--[Lys^12, Nle^17, Ala^19, Ala^25, Leu^26, Lys^27,28 ]--VIP (Ac-HSDAVFTDNYTKLRKQ[Nle]AAKKYLNALKK-NH2; SMILES CCCC[C@H](NC(=O)[C@H](CCC(N)=O)NC(=O)[C@H](CCCCN)NC(=O)[C@H](CCCNC(=N)N)NC(=O)[C@H](CC(C)C)NC(=O)[C@H](CCCCN)NC(=O)[C@@H](NC(=O)[C@H](Cc1ccc(O)cc1)NC(=O)[C@H](CC(N)=O)NC(=O)[C@H](CC(=O)O)NC(=O)[C@@H](NC(=O)[C@H](Cc1ccccc1)NC(=O)[C@@H](NC(=O)[C@H](C)NC(=O)[C@H](CC(=O)O)NC(=O)[C@H](CO)NC(=O)[C@H](Cc1c[nH]cn1)NC(C)=O)C(C)C)[C@@H](C)O)[C@@H](C)O)C(=O)N[C@@H](C)C(=O)N[C@@H](C)C(=O)N[C@@H](CCCCN)C(=O)N[C@@H](CCCCN)C(=O)N[C@@H](Cc1ccc(O)cc1)C(=O)N[C@@H](CC(C)C)C(=O)N[C@@H](CC(N)=O)C(=O)N[C@@H](C)C(=O)N[C@@H](CC(C)C)C(=O)N[C@@H](CCCCN)C(=O)N[C@@H](CCCCN)C(N)=O) [Ac--(SEQ ID NO: 12)--NH2]	0.014	1.5
